Experimental data from US20240360114A1 (SIRONAX LTD., priority 2021, published 2024).

Tested on: HT-1080 cells
Experiment: HT-1080 cell viability assay (ferroptosis induced by RSL3, Cell Titer-Glo)
Type: cell-based
Conditions: Homo sapiens, HT-1080, 20 h, ferroptosis inducer RSL3, 20 hours, ferroptosis inhibitory activity, Table 2
How it was run: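 EC50 fitted by sigmoidal dose-response regression on luminescent viability data normalized to untreated cells. Compounds ran as a 10-point, 3-fold series from 1.1 μM alongside RSL3 for 20 hours, after overnight seeding.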

| SMILES | EC50 |
| --- | --- |
| CC1CN(c2ccc(NC3CC4(CC(N)C4)C3)cc2F)CC(C)O1 (centres unmarked) [Compound 457, N2-(4-(2,6-dimethylmorpholino)-3-fluorophenyl)spiro[3.3]heptane-2,6-diamine] | 100 to 1000 nM |
| CC1CN(c2ccc(NC3CCC(C)(N)CC3)cc2F)CC(C)O1 (centres unmarked) [Compound 458, N1-(4-(2,6-dimethylmorpholino)-3-fluorophenyl)-4-methylcyclohexane-1,4-diamine] | 100 to 1000 nM |
| COC1(C(F)(F)F)CCN(c2ccc(NC[C@H]3CC[C@H](N)CC3)cc2)CC1 [Compound 459, N-(((1r,4r)-4-aminocyclohexyl)methyl)-4-(4-methoxy-4-(trifluoromethyl)piperidin-1-yl)aniline] | 0.1 to 100 nM |
| CC1CN(c2ccc(NC3C[C@H]4CC(N)C[C@H]4C3)cc2F)CC(C)O1 (stereo partly drawn) [Compound 460, (3aR, 6aS)-N2-(4-(2,6-dimethylmorpholino)-3-fluorophenyl) octahydropentalene-2,5-diamine] | 0.1 to 100 nM |
| CC1CN(c2ccc(NC3CC4(CC(N)C4)C3)c(F)c2)CC(C)O1 (centres unmarked) [Compound 461, N2-(4-(2,6-dimethylmorpholino)-2-fluorophenyl)spiro[3.3]heptane-2,6-diamine] | 0.1 to 100 nM |
| CC1CN(c2ccc(NC3CC(N)C3)c(F)c2)CC(C)O1 (centres unmarked) [Compound 462, N1-(4-(2,6-dimethylmorpholino)-2-fluorophenyl)cyclobutane-1,3-diamine] | 1000 to 10000 nM |
| Cc1cc(N2CC(C)OC(C)C2)ccc1NC1CC2(CC(N)C2)C1 (centres unmarked) [Compound 463, N2-(4-(2,6-dimethylmorpholino)-2-methylphenyl)spiro[3.3]heptane-2,6-diamine] | 0.1 to 100 nM |
| Cc1cc(NC[C@H]2CC[C@H](N)CC2)cc(F)c1N1CC(C)OC(C)C1 (some centres unmarked) [Compound 464, N-(((1r,4r)-4-aminocyclohexyl)methyl)-4-(2,6-dimethylmorpholino)-3-fluoro-5-methylaniline] | 0.1 to 100 nM |
| Cc1cc(N2CCCOCC2)ccc1NC1CC2(CC(N)C2)C1 (centres unmarked) [Compound 465, N2-(2-methyl-4-(1,4-oxazepan-4-yl)phenyl)spiro[3.3]heptane-2,6-diamine] | 0.1 to 100 nM |
| CC1CN(c2ccc(NC[C@H]3CC[C@H](N)CC3)c(C(F)(F)F)c2)CC(C)O1 (some centres unmarked) [Compound 466, N-(((1r,4r)-4-aminocyclohexyl)methyl)-4-(2,6-dimethylmorpholino)-2-(trifluoromethyl)aniline] | 100 to 1000 nM |
| CC1CN(c2ccc(NC[C@H]3CC[C@H](N)CC3)cc2)CC(C)N1CC(F)(F)F (some centres unmarked) [Compound 467, N-(((1r,4r)-4-aminocyclohexyl)methyl)-4-(3,5-dimethyl-4-(2,2,2-trifluoroethyl)piperazin-1-yl)aniline] | 0.1 to 100 nM |
| CC1CN(c2ccc(NC[C@H]3CC[C@H](N)CC3)cc2C#N)CC(C)O1 (some centres unmarked) [Compound 468, 5-((((1r,4r)-4-aminocyclohexyl)methyl)amino)-2-(2,6-dimethylmorpholino)-benzonitrile] | 0.1 to 100 nM |
| Cc1c(N2CC(C)OC(C)C2)ccc(NC[C@H]2CC[C@H](N)CC2)c1F (some centres unmarked) [Compound 469, N-(((1r,4r)-4-aminocyclohexyl)methyl)-4-(2,6-dimethylmorpholino)-2-fluoro-3-methylaniline] | 100 to 1000 nM |
| CCOCCOC1CCN(c2ccc(NC3CC4(CC(N)C4)C3)c(C)c2)CC1 (centres unmarked) [Compound 470, N2-(4-(4-(2-ethoxyethoxy)piperidin-1-yl)-2-methylphenyl)spiro[3.3]heptane-2,6-diamine] | 0.1 to 100 nM |
| CCOC1CCN(c2ccc(NC3CC4(CC(N)C4)C3)c(C)c2)CC1 (centres unmarked) [Compound 471, N2-(4-(4-ethoxypiperidin-1-yl)-2-methylphenyl)spiro[3.3]heptane-2,6-diamine] | 0.1 to 100 nM |
| N[C@H]1CC[C@H](CNc2ccc(N3CC4CCC(C3)O4)c(F)c2)CC1 [Compound 472, N-(((1r,4r)-4-aminocyclohexyl)methyl)-4-(8-oxa-3-azabicyclo[3.2.1]octan-3-yl)-3-fluoroaniline] | 0.1 to 100 nM |
| COCCOc1cc(NC2CCC(N)CC2)ccc1N1CCC(C(F)(F)F)CC1 (centres unmarked) [Compound 473, N1-(3-(2-methoxyethoxy)-4-(4-(trifluoromethyl)piperidin-1-yl)phenyl)cyclohexane-1,4-diamine] | 0.1 to 100 nM |
| Cc1nc(N2CC(C)OC(C)C2)ccc1NC1C2CC3CC1CC(N)(C3)C2 (centres unmarked) [Compound 474A, N^4-(6-(2.6-dimethylmorpholino)-2-methylpyridin-3-yl)adamantane-1,4-diamine] | 0.1 to 100 nM |
| Cc1nc(N2CC(C)OC(C)C2)ccc1NC1C2CC3CC1CC(CN)(C3)C2 (centres unmarked) [Compound 475A, N-(5-(aminomethyl)adamantan-2-yl)-6-(2,6-dimethylmorpholino)-2-methylpyridin-3-amine] | 0.1 to 100 nM |
| Cc1cc(NC2CC3(CC(N)C3)C2)c(C)nc1N1CC(C)OC(C)C1 (centres unmarked) [Compound 476, N2-(6-(2,6-dimethylmorpholino)-2,5-dimethylpyridin-3-yl)spiro[3.3]heptane-2,6-diamine] | 0.1 to 100 nM |
| CC1CN(c2ccc(NC3CC4(CC(N)C4)C3)cn2)CC(C)O1 (centres unmarked) [Compound 477, N2-(6-(2,6-dimethylmorpholino)pyridin-3-yl)spiro[3.3]heptane-2,6-diamine] | 100 to 1000 nM |

| SMILES | EC50 |
| --- | --- |
| C[C@H]1CN(c2ccc(NC[C@H]3CC[C@H](N)CC3)cc2F)C[C@H](C)O1 [Compound 478, N-(((1r,4S)-4-aminocyclohexyl)methyl)-4-((2S,6S)-2,6-dimethylmorpholino)-3-fluoroaniline] | 0.1 to 100 nM |
| Cc1nc(N2C[C@H](C)O[C@@H](C)C2)ccc1NC1CC2(CC(N)C2)C1 (stereo partly drawn) [Compound 479, N2-(6-((2S,6S)-2,6-dimethylmorpholino)-2-methylpyridin-3-yl)spiro[3.3]heptane-2,6-diamine] | 0.1 to 100 nM |
| CC1CN(c2cc(F)c(NC[C@H]3CC[C@H](N)CC3)cc2F)CC(C)O1 (some centres unmarked) [Compound 481, N-(((1r,4r)-4-aminocyclohexyl)methyl)-4-(2,6-dimethylmorpholino)-2,5-difluoroaniline] | 100 to 1000 nM |
| Cc1cc(N2CC3(COC3)C2)ccc1NC1CC2(CC(N)C2)C1 (centres unmarked) [Compound 482, N2-(2-methyl-4-(2-oxa-6-azaspiro[3.3]heptan-6-yl)phenyl)spiro[3.3]heptane-2,6-diamine] | 0.1 to 100 nM |
| CC1CN(c2ccc(NC[C@H]3CC[C@H](N)CC3)c(Cl)c2)CC(C)O1 (some centres unmarked) [Compound 483, N-(((1r,4r)-4-aminocyclohexyl)methyl)-2-chloro-4-(2,6-dimethylmorpholino) aniline] | 0.1 to 100 nM |
| CC1CN(c2ccc(NC[C@H]3CC[C@H](N)CC3)c(C#N)c2)CC(C)O1 (some centres unmarked) [Compound 484, 2-((((1r,4r)-4-aminocyclohexyl)methyl)amino)-5-(2,6-dimethylmorpholino) benzonitrile] | 1000 to 10000 nM |
| NC1CCC(Nc2ccc(N3CCC(C(F)(F)F)CC3)cc2OCCO)CC1 (centres unmarked) [Compound 485, 2-(2-((4-aminocyclohexyl)amino)-5-(4-(trifluoromethyl)piperidin-1-yl)phenoxy) ethan-1-ol] | 0.1 to 100 nM |
| Cc1nc(N2CC3CCC(C2)O3)ccc1NC1CC2(CC(N)C2)C1 (centres unmarked) [Compound 486, N2-(6-(8-oxa-3-azabicyclo[3.2.1]octan-3-yl)-2-methylpyridin-3-yl)spiro[3.3]heptane-2,6-diamine] | 0.1 to 100 nM |
| Cc1cc(N2C[C@@H](C)O[C@@H](C)C2)ncc1NC1CC2(CC(N)C2)C1 (stereo partly drawn) [Compound 487, N2-(6-((2S,6R)-2,6-dimethylmorpholino)-4-methylpyridin-3-yl)spiro[3.3]heptane-2,6-diamine] | 100 to 1000 nM |
| Cc1nc(N2C[C@@H](C)O[C@@H](C)C2)ccc1NC1CC2(CC(N)C2)C1 (some centres unmarked) [Compound 488A, N2-(6-(2,6-dimethylmorpholino)-2-methylpyridin-3-yl)spiro[3.3]heptane-2,6-diamine] | 0.1 to 100 nM |
| Cc1cc(NC2CC(C(=O)NN)C2)ccc1N1CCC(C)CC1 (centres unmarked) [Compound 489] | 0.1 to 100 nM |
| Cc1nc(N2CC(C)OC(C)C2)ccc1NCCC1CCC(N)C1 (centres unmarked) [Compound 490, N-(2-(3-aminocyclopentyl)ethyl)-6-(2,6-dimethylmorpholino)-2-methylpyridin-3-amine] | 0.1 to 100 nM |
| Cc1nc(N2CC3CCC2CO3)ccc1NC1CC2(CC(N)C2)C1 (centres unmarked) [Compound 491, N2-(6-(2-oxa-5-azabicyclo[2.2.2]octan-5-yl)-2-methylpyridin-3-yl)spiro[3.3]heptane-2,6-diamine] | 0.1 to 100 nM |
| Cc1cc(NC2CCCCC2C(N)=O)ccc1N1CCC(C)CC1 (centres unmarked) [Compound 492, 2-((3-methyl-4-(4-methylpiperidin-1-yl)phenyl)amino)cyclohexane-1-carboxamide] | 0.1 to 100 nM |
| Cc1nc(N2CC(C)N(CC(F)(F)F)C(C)C2)ccc1NC1CC2(CC(N)C2)C1 (centres unmarked) [Compound 493, N2-(6-(3,5-dimethyl-4-(2,2,2-trifluoroethyl)piperazin-1-yl)-2-methylpyridin-3-yl)spiro[3.3]heptane-2,6-diamine] | 0.1 to 100 nM |
| Cc1nc(N2CC3(CCOCC3)C2)ccc1NC1CC2(CC(N)C2)C1 (centres unmarked) [Compound 494, N2-(2-methyl-6-(7-oxa-2-azaspiro[3.5]nonan-2-yl)pyridin-3-yl)spiro[3.3]heptane-2,6-diamine] | 100 to 1000 nM |
| COc1cc(NC[C@H]2CC[C@H](N)CC2)ccc1N1C[C@@H](C)O[C@@H](C)C1 [Compound 495, N-(((1r,4R)-4-aminocyclohexyl)methyl)-4-((2S,6R)-2,6-dimethylmorpholino)-3-methoxyaniline] | 100 to 1000 nM |
| COc1cc(N2CC(C)OC(C)C2)ccc1NC[C@H]1CC[C@H](N)CC1 (some centres unmarked) [Compound 497, N-(((1r,4r)-4-aminocyclohexyl)methyl)-4-(2,6-dimethylmorpholino)-2-methoxyaniline] | 0.1 to 100 nM |
| COC1(C(F)(F)F)CCN(c2ccc(NC3CC4(CC(N)C4)C3)c(C)n2)CC1 (centres unmarked) [Compound 498, N2-(6-(4-methoxy-4-(trifluoromethyl)piperidin-1-yl)-2-methylpyridin-3-yl)spiro[3.3]heptane-2,6-diamine] | 0.1 to 100 nM |
| Cc1nc(N2CCCOCC2)ccc1NC1CC2(CC(N)C2)C1 (centres unmarked) [Compound 499, N2-(2-methyl-6-(1,4-oxazepan-4-yl)pyridin-3-yl)spiro[3.3]heptane-2,6-diamine] | 100 to 1000 nM |
